In patent publication US20100087523A1, “Rupestonic acid derivatives and use thereof” (priority 2008, published 2010):
Read-outs that look alike come from different tables or passages of the source.

Key:
[1] = system: B-type flu virus (jifang/97-13); settings: read-out: Activity for inhibiting B-type flu viruses IC50
[2] = system: MDCK (Madin-darby canine kidney) cells; settings: read-out: TC50 (toxic concentration 50%); host cells of the anti-flu virus test
[3] = system: A-type flu virus (jifang/90-15)
in vitro = settings: dog
[4] = system: A-type flu virus (jifang/90-15); test: organism not typed; settings: MDCK, 36 h, read-out: Activity for inhibiting A-type flu viruses IC50
[5] = system: B-type flu virus (jifang/97-13); test: organism not typed; settings: MDCK, 36 h, read-out: Activity for inhibiting B-type flu viruses IC50
[6] = read-out: IC50, inhibit A-type flu virus
[7] = read-out: Activity for inhibiting A-type flu viruses IC50

SMILES	IC50 [1]	CC50 [2]	IC50 [3, 6]	CC50 (in vitro)	IC50 [4]	IC50 [3, 7]	IC50 [5]
C=C(C(=O)O)[C@H]1CC[C@H](C)[C@@H]2CC(=O)C(C)=C2C1 [Compound 1, rupestonic acid]	116 µM	1040 µM					
C=C(C(=O)Oc1ccc(C)cc1)C1CCC(C)C2CC(=O)C(C)=C2C1 (centres unmarked) [B-9, Rupestonic (p-methylphenyl)-ester]		191 µM	13.4 µM				
CCOC(=O)C1=C[C@@H](OC(CC)CC)[C@H](NC(C)=O)[C@@H](N)C1 [Oseltamivir]				> 1220 µM	5.1 µM		
C=C(C(=O)Nc1ccccc1Br)C1CCC(C)C2CC(=O)C(C)=C2C1 (centres unmarked) [A-5, N(2-bromo-phenyl)-Rupestonic amide]		160 µM				49 µM	
C=C(C(=O)Oc1ccc(Cl)cc1)C1CCC(C)C2CC(=O)C(C)=C2C1 (centres unmarked) [B-2, Rupestonic (p-chlorophenyl)-ester]		240 µM	19.1 µM				
C=C(C(=O)Oc1ccccc1Cl)C1CCC(C)C2CC(=O)C(C)=C2C1 (centres unmarked) [B-3, Rupestonic (o-chlorophenyl)-ester]		49.7 µM				11.5 µM	
C=C(C(=O)OCc1ccc([N+](=O)[O-])cc1)C1CCC(C)C2CC(=O)C(C)=C2C1 (centres unmarked) [B-15, Rupestonic (p-nitryl-benzyl)-ester]	5.5 µM	25 µM				5.5 µM	
C=C(C(=O)OCC)C1CCC(C)C2CC(=O)C(C)=C2C1 (centres unmarked) [B-1, Ethyl Rupestonic ester]	50.9 µM	194 µM				39.1 µM	
C=C(C(=O)OCc1ccccc1Br)C1CCC(C)C2CC(=O)C(C)=C2C1 (centres unmarked) [B-17, Rupestonic (o-bromobenzyl)-ester]	25.7 µM	57.3 µM				15.2 µM	
C=C(C(=O)Nc1ccc(Cl)cc1)C1CCC(C)C2CC(=O)C(C)=C2C1 (centres unmarked) [A-2, N(4-chloro-phenyl)-Rupestonic amide]	29.9 µM	121 µM				19.2 µM	
C=C(C(=O)OCc1ccc(Cl)cc1)C1CCC(C)C2CC(=O)C(C)=C2C1 (centres unmarked) [B-14, Rupestonic (p-chlorobenzyl)-ester]	19.1 µM	47.7 µM				12.5 µM	
C=C(C(=O)Oc1ccc(Br)cc1)C1CCC(C)C2CC(=O)C(C)=C2C1 (centres unmarked) [B-4, Rupestonic (p-bromophenyl)-ester]		44.2 µM				10.2 µM	
NC(=O)c1ncn([C@@H]2O[C@H](CO)[C@@H](O)[C@H]2O)n1 [Ribavirin]				1570 µM	1.6 µM		11.9 µM
